Source: ChEMBL document CHEMBL1124952, “Growth inhibition and induction of cellular differentiation of human myeloid leukemia cells in culture by carbamoyl congeners of ribavirin” (1990)

Experiments:
Assay type in all cases: functional
L1210 = experiment: Evaluated for cell growth inhibition and induction of cellular differentiation of Murine leukemia cell line (L-1210); settings: Mus musculus, read-out: ID50 (the source's name)
HL-60 = experiment: Evaluated for cell growth inhibition and induction of cellular differentiation of human myeloid leukemia cell line (HL-60); settings: read-out: ID50 (the source's name)
[1] = Evaluated for cell growth inhibition and induction of cellular differentiation of human B-lymphoblast cell line (WI-L2); settings: WIL2, read-out: ID50 (the source's name)
K562 = experiment: Evaluated for cell growth inhibition and induction of cellular differentiation of human myeloid leukemia cell line (K562); settings: read-out: ID50 (the source's name)

NC(=O)c1ncn([C@@H]2O[C@H](CO)[C@@H](O)[C@H]2O)n1 [RIBAVIRIN]
IC50 (L1210): 36 µM | IC50 (HL-60): 67 µM | IC50 [1]: 42 µM | IC50 (K562): 50 µM

N=C(NO)c1nn(C2O[C@H](CO)[C@@H](O)[C@H]2O)nc1/C(N)=N/O (stereo not given in full)
IC50 (L1210): > 200 µM | IC50 (HL-60): > 200 µM | IC50 [1]: > 200 µM | IC50 (K562): > 200 µM

N=C(S)c1nn(C2O[C@H](CO)[C@@H](O)[C@H]2O)nc1C(N)=S (stereo not given in full)
IC50 (L1210): > 200 µM | IC50 (HL-60): > 200 µM | IC50 [1]: > 200 µM | IC50 (K562): > 200 µM

NC(=O)c1nn(C2O[C@H](CO)[C@@H](O)[C@H]2O)c(N)c1C(N)=O (stereo not given in full)
IC50 (L1210): 44 µM | IC50 (HL-60): 39 µM | IC50 [1]: 46 µM | IC50 (K562): 51 µM

NC(=O)c1cn(C2O[C@H](CO)[C@@H](O)[C@H]2O)nc1C(N)=O (stereo not given in full)
IC50 (L1210): > 100 µM | IC50 (HL-60): 58 µM | IC50 [1]: 100 µM | IC50 (K562): 160 µM

N=C(N)c1nn(C2OC(CO)[C@H](O)C2O)c(N)c1C(=N)N (stereo not given in full)
IC50 (L1210): 200 µM | IC50 (HL-60): 130 µM | IC50 [1]: 179 µM | IC50 (K562): > 200 µM

NC(=O)c1nn([C@@H]2O[C@H](CO)[C@@H](O)[C@H]2O)nc1C(N)=O
IC50 (L1210): > 100 µM | IC50 (HL-60): 32 µM | IC50 [1]: 41 µM | IC50 (K562): 26 µM

NC(=O)c1cn(C2O[C@H](CO)[C@@H](O)[C@H]2O)cc1C(N)=O (stereo not given in full)
IC50 (L1210): 48 µM | IC50 (HL-60): 36 µM | IC50 [1]: 33 µM | IC50 (K562): 32 µM

N=C(S)c1nn(C2O[C@H](CO)[C@@H](O)[C@H]2O)c(N)c1C(N)=S (stereo not given in full)
IC50 (L1210): > 200 µM | IC50 (HL-60): 200 µM | IC50 [1]: 154 µM | IC50 (K562): > 200 µM

N=C(NO)c1nn(C2O[C@H](CO)[C@@H](O)[C@H]2O)c(N)c1/C(N)=N/O (stereo not given in full)
IC50 (L1210): > 200 µM | IC50 (HL-60): > 200 µM | IC50 [1]: > 200 µM | IC50 (K562): > 200 µM
